Measurements published in patent publication US8506964B2, “Fusion proteins and related compositions, methods and systems for treatment and/or prevention of atherosclerosis” (priority 2010, dated 2013).

Columns and labels:
apo E −/− mice = assay: Subcutaneous immunization of apo E −/− mice with peptide test articles, plaque size in en face aorta; format: in vivo
Description: Inhibition of atherosclerosis in apo E −/− mice by immunization with fifteen different test articles based on fifteen different peptide fragments of apo B was investigated.
In these experiments, apo E −/− mice received primary subcutaneous immunization at 6-7 weeks of age, followed by two boosters administered […]. The mice were fed a high cholesterol diet from 1 week after the second injection (10 weeks of age) and continued until sacrifice at 25 weeks of age. The effect of immunization on atherosclerosis formation was assessed by measuring plaque size (percent area stained with Oil Red O) in an en face preparation of the aorta.
Based on the results from these and other experiments, four peptides were identified as particularly effective in reducing the progression of atherosclerosis.

mouse LDL = assay: ELISA of sera for antibodies to mouse LDL; format: in vivo; conditions: parenteral immunization; data not shown
Procedure: ELISA methods were used to quantitate serum Ig isotypes specific for the apoB-100 peptide as well as total IgG and IgM as previously described (ref. 19). Sera from immunized mice were tested for antibodies to mouse LDL by incubation (1/50, 1/150 and 1/450 dilutions) in plates coated with mouse LDL (10 μg/ml) and using alkaline phosphatase-conjugated anti-mouse-IgG as detector antibody. Sera from C57BL/6 mice immunized with OVA-CTB were assayed for reactivity to mouse or human LDL, or to apoB100, at dilutions of 1/25, 1/250 and 1/2500.

[1] = subcutaneous immunization at 6-7 weeks, boosters 3 and 5 weeks later, high cholesterol diet, plaque size (percent area Oil Red O) at 25 weeks

| Substance | Reduction in atherosclerosis progression (apo E −/− mice; [1]) | also measured |
| --- | --- | --- |
| IEIGL EGKGF EPTLE ALFGK (IEIGLEGKGFEPTLEALFGK) [Peptide P45] | (−53%, p < 0.05) | – |
| ATRFK HLRKY TYNYE AESSS (ATRFKHLRKYTYNYEAESSS; Apolipoprotein B-100; UniProt P04114 43-62, looked up, fragment) [Peptide P2] | (−42%, p < 0.05) | – |
| KTTKQ SFDLS VKAQY KKNKH (KTTKQSFDLSVKAQYKKNKH) [Peptide P210] | (−49%, p = 0.06) | – |
| ovalbumin | – | IgG antibody responses to mouse LDL (mouse LDL): did not lead to induction of significant IgG antibody responses |
| SLTST SDLQS GIIKN TASLK [Peptide P102] | – | Reduction in atherosclerosis progression (apo E −/− mice; mouse, in vivo, sc): (−52%, p < 0.05) |
